≈ marks a conversion by molar mass, not a printed value. Structures can show the parent of a compound that is named as a salt. Where two headings read alike, the source gives them in different places. Marks after values point to notes of the source that are not given here.
What was measured:
Slc:ddY male mice = assay: Effect of inducing convulsion, intracisternal administration to mice; type: in vivo; settings: i.cist., Probit method
Description: The compounds (Compound Nos. 1, 2, and 3) of the present invention and Comparative Compounds A and B were individually dissolved in 5% glucose, to thereby prepare several samples to be tested. Groups of six-week-old Slc:ddY male mice (body weight: 23.9 to 27.4 g), each group consisting of 6 mice, were employed in the test. Each of the above-prepared samples was administered intracisternally to each mouse belonging to each group at concentrations shown in Tables 2 and 3 (5 μL/mouse). During 30 minutes after administration, it was observed whether each mouse suffered convulsion or died in an individual cage. Administration was performed according to the method described by Ueda, et al. (Reference 1).
Reference 1: Ueda H, Amano H, Shiomi H, Takagi H: Comparison of the analgesic effects of various opioid peptides by a newly devised intracisternal injection technique in conscious mice. Eur J Pharmacol. 1979; 56: 265-8.
Significant difference test between groups was performed in terms of incidence of convulsion according to the Fisher's direct probability calculation method (one-sided test, level of significance: P<0.05). On the basis of percentile incidence of convulsion, CD50 (50% concentration for inducing convulsion) and 95% confidence limit were calculated by the Probit method.

P. aeruginosa 32104 = assay: Antibacterial activity (MIC), standard method of the Japan Society of Chemotherapy; type: cell-based
Description: (§1) The antimicrobial activities of the compounds of the present invention were determined according to a standard method designated by the Japan Society of Chemotherapy. The results are expressed by MIC (μg/mL) (Table 1). In Table 1, S. aureus 870307 and S. pneumonia J24 are quinolone-resistant bacteria.

S. maltophilia IID 1275 = assay: as above; type: cell-based
Description: as §1

S. pyogenes G-36 = assay: as above; type: cell-based
Description: as §1

K. pneumoniae TYPE I = assay: as above; type: cell-based
Description: as §1

S. epidermidis 56500 = assay: as above; type: cell-based
Description: as §1

S. pneumoniae J24 = assay: as above; type: cell-based
Description: as §1

E. faevcalis ATCC 19433 = assay: as above; type: cell-based
Description: as §1

P. aeruginosa 32121 = assay: as above; type: cell-based
Description: as §1

S. aureus 870307 = assay: as above; type: cell-based
Description: as §1

S. flexneri 2A 5503 = assay: as above; type: cell-based
Description: as §1

S. marcescens 10100 = assay: as above; type: cell-based
Description: as §1

P. Vulgalis 08601 = assay: as above; type: cell-based
Description: as §1

E. coli NIHJ = assay: as above; type: cell-based
Description: as §1

S. aureus FDA 209P = assay: as above; type: cell-based
Description: as §1

[1] = test system: Chinese hamster lung (CHL/IU) cells; assay: Effect of inducing chromosomal aberration; type: cell-based; settings: for Percentile induction of structural aberration (TA %): 24 hours, CHL/IU cells
Description: From each sample solution, samples to be tested having a concentration of 1, 3, 10, 30, 50, and 100 μg/mL (as reduced to free form) were prepared. As a negative control, 0.1 mol/L NaOH was employed.
Chinese hamster lung (CHL/IU) cells in logarithmic growth phase were employed. The cells were treated in a culture solution containing each sample to be tested for 24 hours. Subsequently, a chromosome specimen was prepared from the thus-treated cells. The culture solution employed was an Eagle's MEM (product of NISSUI PHARMACEUTICAL CO., LTD.) medium containing 15% fetal bovine serum (15% FBS-MEM).
In each sample concentration, 100 cells during metaphase were observed, to thereby record types and numbers of the chromosomal aberration.

[2] = Shigella flexneri, 2A5503, read-out: MIC
[3] = Pseudomonas aeruginosa, P. aeruginosa 32104, read-out: MIC
[4] = Stenotrophomonas maltophilia, IID1275, S. maltophilia IID 1275, read-out: MIC
[5] = Streptococcus pyogenes, G36, S. pyogenes G-36, read-out: MIC
[6] = Klebsiella pneumoniae, K. pneumoniae TYPE I, read-out: MIC
[7] = Staphylococcus epidermidis, S. epidermidis 56500, read-out: MIC
[8] = Streptococcus pneumoniae, S. pneumoniae J24, quinolone-resistant, read-out: MIC
[9] = E. faevcalis ATCC 19433, read-out: MIC
[10] = Pseudomonas aeruginosa, P. aeruginosa 32121, read-out: MIC
[11] = Staphylococcus aureus, S. aureus 870307, quinolone-resistant, read-out: MIC
[12] = Serratia marcescens, S. marcescens 10100, read-out: MIC
[13] = P. Vulgalis 08601, read-out: MIC
[14] = Escherichia coli, E. coli NIHJ, read-out: MIC
[15] = Staphylococcus aureus, FDA209P, S. aureus FDA 209P, read-out: MIC

| SMILES | MIC (S. flexneri 2A 5503; [2]) [µg/mL] | Percentile induction of structural aberration (TA %) ([1]; 1 μg/mL) [%] | Percentile induction of structural aberration (TA %) ([1]; 3 μg/mL) [%] | Percentile induction of structural aberration (TA %) ([1]; 10 μg/mL) [%] | Percentile induction of structural aberration (TA %) ([1]; 30 μg/mL) | Percentile induction of structural aberration (TA %) ([1]; 50 μg/mL) | Percentile induction of structural aberration (TA %) ([1]; 100 μg/mL) | MIC (P. aeruginosa 32104; [3]) [µg/mL] | MIC (S. maltophilia IID 1275; [4]) [µg/mL] | MIC (S. pyogenes G-36; [5]) [µg/mL] | MIC (K. pneumoniae TYPE I; [6]) [µg/mL] | MIC (S. epidermidis 56500; [7]) [µg/mL] | MIC (S. pneumoniae J24; [8]) [µg/mL] | MIC (E. faevcalis ATCC 19433; [9]) [µg/mL] | MIC (P. aeruginosa 32121; [10]) [µg/mL] | MIC (S. aureus 870307; [11]) [µg/mL] | MIC (S. marcescens 10100; [12]) [µg/mL] | MIC (P. Vulgalis 08601; [13]) [µg/mL] | MIC (E. coli NIHJ; [14]) [µg/mL] | MIC (S. aureus FDA 209P; [15]) [µg/mL] | other results |
| --- | --- | --- | --- | --- | --- | --- | --- | --- | --- | --- | --- | --- | --- | --- | --- | --- | --- | --- | --- | --- | --- |
| COc1c(N2C[C@@H](N)[C@@H](C)C2)c(F)cc2c(=O)c(C(=O)O)cn([C@@H]3C[C@@H]3F)c12 [Comparative Compound A, 7-[(3S,4S)-3-Amino-4-methylpyrrolidin-1-yl]-6-fluoro-1-[(1R,2S)-2-fluorocyclopropyl]-1,4-dihydro-8-methoxy-4-oxoquinoline-3-carboxylic acid-hydrochloride, reference compound] | 0.006 | – | – | – | – | – | – | – | – | – | – | – | – | – | – | – | – | – | – | – | CD50 (50% concentration for inducing convulsion), with 95% confidence limit (Slc:ddY male mice): 12.7 (7.7-24.9)^a) μg/5 μL/mouse; MIC (P. aeruginosa 32104; Pseudomonas aeruginosa, 32104): 0.1 µg/mL; MIC (S. maltophilia IID 1275; Stenotrophomonas maltophilia, IID1275): 0.1 µg/mL; MIC (S. pyogenes G-36; Streptococcus pyogenes, G36): 0.05 µg/mL; MIC (K. pneumoniae TYPE I; Klebsiella pneumoniae): 0.05 µg/mL; MIC (S. epidermidis 56500; Staphylococcus epidermidis, 56500): 0.05 µg/mL; MIC (S. pneumoniae J24; Streptococcus pneumoniae, J24): 0.025 µg/mL; MIC (E. faevcalis ATCC 19433): 0.1 µg/mL; MIC (P. aeruginosa 32121; Pseudomonas aeruginosa, 32121): 0.05 µg/mL; MIC (S. aureus 870307; Staphylococcus aureus, 870307): 0.39 µg/mL; MIC (S. marcescens 10100; Serratia marcescens, 10100): 0.05 µg/mL; MIC (P. Vulgalis 08601): 0.006 µg/mL; MIC (E. coli NIHJ; Escherichia coli): 0.006 µg/mL; MIC (S. aureus FDA 209P; Staphylococcus aureus, FDA209P): 0.012 µg/mL |
| Cc1c(N2C[C@@H](N)[C@@H](C)C2)c(F)cc2c(=O)c(C(=O)O)cn(C3CC3)c12 [Comparative Compound C, reference compound] | 0.025 (≈ 0.0696 µM) | 3 | 4 | 5 | 72* % | 98* % | TOX*^2 | 0.39 (≈ 1.09 µM) | 0.2 (≈ 0.556 µM) | 0.2 (≈ 0.556 µM) | 0.05 (≈ 0.139 µM) | 0.1 (≈ 0.278 µM) | 0.1 (≈ 0.278 µM) | 0.2 (≈ 0.556 µM) | 0.2 (≈ 0.556 µM) | 1.56 (≈ 4.34 µM) | 0.2 (≈ 0.556 µM) | 0.05 (≈ 0.139 µM) | 0.012 (≈ 0.0334 µM) | 0.025 (≈ 0.0696 µM) | Observation of chromosomes (cytotoxicity) ([1]; at a concentration of 100 μg/mL): could not be observed |
| CC[C@H]1CN(c2c(F)cc3c(=O)c(C(=O)O)cn([C@@H]4C[C@@H]4F)c3c2C)C[C@H]1N [Compound No. 2, 7-[(3S,4S)-3-Amino-4-ethylpyrrolidin-1-yl]-6-fluoro-1-[(1R,2S)-2-fluorocyclopropyl]-8-methyl-1,4-dihydro-4-oxoquinoline-3-carboxylic acid] | ≤ 0.003 | 1 | 1 | 1 | 2% | 3% | 8% | 0.05 (≈ 0.128 µM) | 0.05 (≈ 0.128 µM) | 0.025 (≈ 0.0639 µM) | 0.025 (≈ 0.0639 µM) | 0.025 (≈ 0.0639 µM) | 0.025 (≈ 0.0639 µM) | 0.1 (≈ 0.255 µM) | 0.025 (≈ 0.0639 µM) | 0.39 (≈ 0.996 µM) | 0.025 (≈ 0.0639 µM) | 0.006 (≈ 0.0153 µM) | ≤ 0.003 | 0.006 (≈ 0.0153 µM) | Significant increase in number of the cells exhibiting chromosomal aberration ([1]; at a concentration of up to 100 μg/mL): not observed |
| COc1c(N2C[C@@H](N)[C@@H](C3CC3)C2)c(F)cc2c(=O)c(C(=O)O)cn([C@@H]3C[C@@H]3F)c12 [Compound No. 8, 7-[(3S,4S)-3-Amino-4-cyclopropylpyrrolidin-1-yl]-6-fluoro-1-[(1R,2S)-2-fluorocyclopropyl]-8-methoxy-1,4-dihydro-4-oxoquinoline-3-carboxylic acid] | 0.025 (≈ 0.0596 µM) | – | – | – | – | – | – | 0.2 (≈ 0.477 µM) | 0.2 (≈ 0.477 µM) | 0.1 (≈ 0.238 µM) | 0.05 (≈ 0.119 µM) | 0.1 (≈ 0.238 µM) | 0.1 (≈ 0.238 µM) | 0.1 (≈ 0.238 µM) | 0.1 (≈ 0.238 µM) | 0.39 (≈ 0.93 µM) | 0.1 (≈ 0.238 µM) | 0.025 (≈ 0.0596 µM) | 0.006 (≈ 0.0143 µM) | 0.012 (≈ 0.0286 µM) | melting point: 211 to 214 °C |
| Cc1c(N2C[C@@H](N)[C@@H](C(C)C)C2)c(F)cc2c(=O)c(C(=O)O)cn([C@@H]3C[C@@H]3F)c12 [Compound No. 16, 7-[(3S,4S)-3-Amino-4-isopropylpyrrolidine-1-yl]-6-fluoro-1-[(1R,2S)-2-fluorocyclopropyl]-8-methyl-1,4-dihydro-4-oxoquinoline-3-carboxylic acid] | 0.006 (≈ 0.0148 µM) | – | – | – | – | – | – | 0.2 (≈ 0.493 µM) | 0.05 (≈ 0.123 µM) | 0.025 (≈ 0.0617 µM) | 0.025 (≈ 0.0617 µM) | 0.025 (≈ 0.0617 µM) | 0.05 (≈ 0.123 µM) | 0.1 (≈ 0.247 µM) | 0.1 (≈ 0.247 µM) | 0.1 (≈ 0.247 µM) | 0.05 (≈ 0.123 µM) | 0.025 (≈ 0.0617 µM) | 0.006 (≈ 0.0148 µM) | 0.006 (≈ 0.0148 µM) | melting point: 124 to 127 °C |
| COc1c(N2C[C@@H]3CCCN[C@@H]3C2)c(F)cc2c(=O)c(C(=O)O)cn(C3CC3)c12 [MFLX, reference compound] | – | – | – | – | – | – | – | – | – | – | – | – | – | – | – | – | – | – | – | – | MIC (P. aeruginosa 32104; P. aeruginosa 32104): 0.39 µg/mL (≈ 0.972 µM); MIC (S. maltophilia IID 1275; S. maltophilia IID 1275): 0.1 µg/mL (≈ 0.249 µM); MIC (S. pyogenes G-36; S. pyogenes G-36): 0.2 µg/mL (≈ 0.498 µM); MIC (K. pneumoniae TYPE I; K. pneumoniae TYPE I): 0.05 µg/mL (≈ 0.125 µM); MIC (S. epidermidis 56500; S. epidermidis 56500): 0.1 µg/mL (≈ 0.249 µM); MIC (S. pneumoniae J24; S. pneumoniae J24, quinolone-resistant): 0.025 µg/mL (≈ 0.0623 µM); MIC (E. faevcalis ATCC 19433; E. faevcalis ATCC 19433): 0.2 µg/mL (≈ 0.498 µM); MIC (P. aeruginosa 32121; P. aeruginosa 32121): 0.2 µg/mL (≈ 0.498 µM); MIC (S. aureus 870307; S. aureus 870307, quinolone-resistant): 0.78 µg/mL (≈ 1.94 µM); MIC (S. flexneri 2A 5503): 0.012 µg/mL (≈ 0.0299 µM); MIC (S. marcescens 10100; S. marcescens 10100): 0.1 µg/mL (≈ 0.249 µM); MIC (P. Vulgalis 08601; P. Vulgalis 08601): 0.025 µg/mL (≈ 0.0623 µM); MIC (E. coli NIHJ; E. coli NIHJ): 0.006 µg/mL (≈ 0.0149 µM); MIC (S. aureus FDA 209P; S. aureus FDA 209P): 0.025 µg/mL (≈ 0.0623 µM) |
